Data taken from US10925856B2, “Methods and compositions involving bucindolol for the treatment of atrial fibrillation” (priority 2018, dated 2021).
Marks after values point to notes of the source that are not given here.

System: plasma norepinephrine
Assay: Plasma norepinephrine (HPLC with electrochemical detection)
Settings: for Degree of reduction in NE by median values: Week 4; for Norepinephrine, ΔWeek 12 Mean ± SEM / Norepinephrine, ΔWeek 12 Median / Norepinephrine, ΔWeek 24 Mean ± SEM / Norepinephrine, ΔWeek 24 Median: change from baseline
[1] = Europe excluding Hungary (n = 48)

How did the “Plasma norepinephrine, Week 4 Mean” value (Canada) turn out when `CC(C)(Cc1c[nH]c2ccccc12)NCC(O)COc1ccccc1C#N` (stereo not shown) [bucindolol, 2-(3-(1-(1H-indol-3-yl)-2-methylpropan-2-ylamino)-2-hydroxypropoxy)benzonitrile] was run?
The value was 583 pg/mL.

What about the “Plasma norepinephrine, Week 4 Median” value (Canada) of the same compound?
Its value is 551 pg/mL.

And the “Plasma norepinephrine, change from baseline to Week 4, Mean ±SEM” value (shortened to “Plasma norepinephrine, change … Mean ±SEM”) (Canada)?
The value was -59 pg/mL.

And the “Plasma norepinephrine, change from baseline to Week 4, Median” value (“Plasma norepinephrine, change … Median” for short) (Canada)?
Its value is -1 pg/mL.

What about the “Norepinephrine, Baseline Mean ± SD” value (Canada (n = 59)) of the same compound?
Its value is 642 ± 341 pg/mL.

What about the “Norepinephrine, Baseline Median” value (Canada (n = 59)) of the same compound?
Its value is 522 pg/mL.

What about the “Norepinephrine, Week 12 Mean ± SD” value (Canada (n = 59)) of the same compound?
The value was 528 ± 252 pg/mL.

And the “Norepinephrine, Week 12 Median” value (Canada (n = 59))?
The value was 484 pg/mL.

What about the “Norepinephrine, Week 24 Mean ± SD” value (Canada (n = 59)) of the same compound?
Its value is 623 ± 276 pg/mL.

What about the “Norepinephrine, Week 24 Median” value (Canada (n = 59)) of the same compound?
Its value is 564 pg/mL.

What about the “Change in NE at Week 4, median (Q1, Q3)” value (Entire Cohort) of the same compound?
Its value is −101 (−241, 43)* pg/ml.

What about the “Plasma norepinephrine, Week 4 Mean” value (Entire Cohort) of the same compound?
Its value is 563 pg/mL.

What about the “Plasma norepinephrine, Week 4 Median” value (Entire Cohort) of the same compound?
Its value is 500 pg/mL.

What about the “Plasma norepinephrine, change … Mean ±SEM” value (Entire Cohort) of the same compound?
Its value is -124 ± 26 pg/mL.

And the “Plasma norepinephrine, change … Median” value (Entire Cohort)?
Its value is -101 pg/mL.

And the “Norepinephrine, Baseline Mean ± SD” value (Entire Cohort (n = 267))?
The value was 682 ± 349 pg/mL.

And the “Norepinephrine, Baseline Median” value (Entire Cohort (n = 267))?
The value was 607 pg/mL.

What about the “Norepinephrine, Week 12 Mean ± SD” value (Entire Cohort (n = 267)) of the same compound?
Its value is 570 ± 275 pg/mL.

And the “Norepinephrine, Week 12 Median” value (Entire Cohort (n = 267))?
Its value is 520 pg/mL.

And the “Norepinephrine, Week 24 Mean ± SD” value (Entire Cohort (n = 267))?
Its value is 631 ± 329 pg/mL.

What about the “Norepinephrine, Week 24 Median” value (Entire Cohort (n = 267)) of the same compound?
Its value is 545 pg/mL.

What about the “Plasma norepinephrine, change … Mean ±SEM” value (Entire Cohort, listed as Buc) of the same compound?
The value was -124 pg/mL.

And the “Plasma norepinephrine, Week 4 Mean” value (Europe excluding Hungary)?
Its value is 604 pg/mL.

What about the “Plasma norepinephrine, Week 4 Median” value (Europe excluding Hungary) of the same compound?
The value was 540 pg/mL.

What about the “Plasma norepinephrine, change … Mean ±SEM” value (Europe excluding Hungary) of the same compound?
Its value is -126 pg/mL.

And the “Plasma norepinephrine, change … Median” value (Europe excluding Hungary)?
Its value is -129 pg/mL.

What about the “Norepinephrine, Baseline Mean ± SD” value [1] of the same compound?
The value was 753 ± 375 pg/mL.

And the “Norepinephrine, Baseline Median” value [1]?
Its value is 691 pg/mL.

And the “Norepinephrine, Week 12 Mean ± SD” value [1]?
The value was 683 ± 318 pg/mL.

What about the “Norepinephrine, Week 12 Median” value [1] of the same compound?
The value was 611 pg/mL.

And the “Norepinephrine, Week 24 Mean ± SD” value [1]?
The value was 798 ± 459 pg/mL.

What about the “Norepinephrine, Week 24 Median” value [1] of the same compound?
Its value is 729 pg/mL.

What about the “Plasma norepinephrine, Week 4 Mean” value (Hungary) of the same compound?
The value was 576 pg/mL.

And the “Plasma norepinephrine, Week 4 Median” value (Hungary)?
Its value is 525 pg/mL.

What about the “Plasma norepinephrine, change … Mean ±SEM” value (Hungary) of the same compound?
The value was -208 pg/mL.

What about the “Plasma norepinephrine, change … Median” value (Hungary) of the same compound?
The value was −213* pg/ml.

And the “Norepinephrine, Baseline Mean ± SD” value (Hungary (n = 33))?
The value was 767 ± 270 pg/mL.

And the “Norepinephrine, Baseline Median” value (Hungary (n = 33))?
Its value is 792 pg/mL.

What about the “Norepinephrine, Week 12 Mean ± SD” value (Hungary (n = 33)) of the same compound?
The value was 638 ± 254 pg/mL.

And the “Norepinephrine, Week 12 Median” value (Hungary (n = 33))?
Its value is 690 pg/mL.

And the “Norepinephrine, Week 24 Mean ± SD” value (Hungary (n = 33))?
The value was 711 ± 267 pg/mL.

What about the “Norepinephrine, Week 24 Median” value (Hungary (n = 33)) of the same compound?
The value was 736 pg/mL.

And the “Plasma norepinephrine, Week 4 Mean” value (U.S.)?
The value was 529 pg/mL.

What about the “Plasma norepinephrine, Week 4 Median” value (U.S.) of the same compound?
The value was 473 pg/mL.

What about the “Plasma norepinephrine, change … Mean ±SEM” value (U.S.) of the same compound?
Its value is -136 pg/mL.

And the “Plasma norepinephrine, change … Median” value (U.S.)?
The value was -101 pg/mL.

And the “Norepinephrine, Baseline Mean ± SD” value (U.S. (n = 127))?
Its value is 650 ± 362 pg/mL.

And the “Norepinephrine, Baseline Median” value (U.S. (n = 127))?
The value was 598 pg/mL.

And the “Norepinephrine, Week 12 Mean ± SD” value (U.S. (n = 127))?
Its value is 529 ± 267 pg/mL.

What about the “Norepinephrine, Week 12 Median” value (U.S. (n = 127)) of the same compound?
Its value is 466 pg/mL.

And the “Norepinephrine, Week 24 Mean ± SD” value (U.S. (n = 127))?
The value was 585 ± 336 pg/mL.

What about the “Norepinephrine, Week 24 Median” value (U.S. (n = 127)) of the same compound?
The value was 498 pg/mL.

What about the “Degree of reduction in NE by median values” (“Degree of reduction in NE” for short) (Hungary) of the same compound?
Its value is 213 pg/mL.

And the “Degree of reduction in NE” value (U.S.)?
The value was 101 pg/mL.

What about the “Degree of reduction in NE” value (rest of Europe) of the same compound?
Its value is 121 pg/mL.

What about the “Reduction in NE” value (Week 12, Canada) of the same compound?
Its value is 100 pg/mL.

What about the “Reduction in NE” value (Week 24, Canada) of the same compound?
Its value is 21 pg/mL.

What about the “Reduction in NE” value (Week 24, Hungary) of the same compound?
The value was 193 pg/mL.

What about the “Reduction in NE” value (Week 24, U.S.) of the same compound?
Its value is 46 pg/mL.

And the “Norepinephrine, ΔWeek 12 Mean ± SEM” value (Canada (n = 59))?
The value was -133 ± 48 pg/mL.

And the “Norepinephrine, ΔWeek 12 Median” value (Canada (n = 59))?
The value was -100 pg/mL.

What about the “Norepinephrine, ΔWeek 24 Mean ± SEM” value (Canada (n = 59)) of the same compound?
Its value is -38 ± 54 pg/mL.

And the “Norepinephrine, ΔWeek 24 Median” value (Canada (n = 59))?
The value was -21 pg/mL.

And the “Norepinephrine, ΔWeek 12 Mean ± SEM” value (Entire Cohort (n = 267))?
Its value is -118 ± 27 pg/mL.

What about the “Norepinephrine, ΔWeek 12 Median” value (Entire Cohort (n = 267)) of the same compound?
The value was -100 pg/mL.

What about the “Norepinephrine, ΔWeek 24 Mean ± SEM” value (Entire Cohort (n = 267)) of the same compound?
The value was -64 ± 31 pg/mL.

And the “Norepinephrine, ΔWeek 24 Median” value (Entire Cohort (n = 267))?
Its value is -47 pg/mL.

What about the “Norepinephrine, ΔWeek 12 Mean ± SEM” value [1] of the same compound?
Its value is -34 ± 51 pg/mL.

What about the “Norepinephrine, ΔWeek 12 Median” value [1] of the same compound?
The value was -55 pg/mL.

What about the “Norepinephrine, ΔWeek 24 Mean ± SEM” value [1] of the same compound?
Its value is 56 ± 152 pg/mL.

What about the “Norepinephrine, ΔWeek 24 Median” value [1] of the same compound?
The value was -82 pg/mL.

What about the “Norepinephrine, ΔWeek 12 Mean ± SEM” value (Hungary (n = 33)) of the same compound?
The value was -172 ± 63 pg/mL.

And the “Norepinephrine, ΔWeek 12 Median” value (Hungary (n = 33))?
The value was -171 pg/mL.

And the “Norepinephrine, ΔWeek 24 Mean ± SEM” value (Hungary (n = 33))?
The value was -132 ± 296 pg/mL.

And the “Norepinephrine, ΔWeek 24 Median” value (Hungary (n = 33))?
Its value is -193 pg/mL.

And the “Norepinephrine, ΔWeek 12 Mean ± SEM” value (U.S. (n = 127))?
Its value is -128 ± 49 pg/mL.

What about the “Norepinephrine, ΔWeek 12 Median” value (U.S. (n = 127)) of the same compound?
The value was -86 pg/mL.

What about the “Norepinephrine, ΔWeek 24 Mean ± SEM” value (U.S. (n = 127)) of the same compound?
The value was -86 ± 40 pg/mL.

What about the “Norepinephrine, ΔWeek 24 Median” value (U.S. (n = 127)) of the same compound?
The value was -46 pg/mL.
